Experiments:
Type in all cases: functional, cell-based
Settings in all cases: monkey, cos-7, 72 µM
[1] = biological target: T1, Hepatic sodium/bile acid cotransporter (Mus musculus, UniProt O08705); test: TP_TRANSPORTER: inhibition of Taurocholate uptake (Taurocholate: 0.72 uM, Lithocholate: 72 uM) in Ntcp-expressing COS-7 cells
T1 sequence (O08705 whole entry): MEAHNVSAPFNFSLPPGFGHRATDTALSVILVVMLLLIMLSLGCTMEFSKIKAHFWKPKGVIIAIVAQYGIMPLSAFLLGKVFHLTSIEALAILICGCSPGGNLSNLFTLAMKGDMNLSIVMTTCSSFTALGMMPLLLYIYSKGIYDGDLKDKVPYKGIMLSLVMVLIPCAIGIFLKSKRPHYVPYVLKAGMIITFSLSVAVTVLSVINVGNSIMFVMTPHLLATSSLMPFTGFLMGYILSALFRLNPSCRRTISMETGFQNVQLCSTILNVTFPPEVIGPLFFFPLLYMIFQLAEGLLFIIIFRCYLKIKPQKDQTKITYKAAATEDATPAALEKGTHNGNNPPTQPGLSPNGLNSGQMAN

[2] = biological target: T1, Hepatic sodium/bile acid cotransporter; test: TP_TRANSPORTER: inhibition of Taurocholate uptake (Taurocholate: 0.72 uM, Deoxycholate: 72 uM) in Ntcp-expressing COS-7 cells
[3] = biological target: T1, Hepatic sodium/bile acid cotransporter; test: TP_TRANSPORTER: inhibition of Taurocholate uptake (Taurocholate: 0.72 uM, CDCA: 72 uM) in Ntcp-expressing COS-7 cells
[4] = biological target: T1, Hepatic sodium/bile acid cotransporter; test: TP_TRANSPORTER: inhibition of Taurocholate uptake (Taurocholate: 0.72 uM, GC: 72 uM) in Ntcp-expressing COS-7 cells

## C[C@H](CCC(=O)O)[C@H]1CC[C@H]2[C@@H]3CC[C@@H]4C[C@H](O)CC[C@]4(C)[C@H]3CC[C@]12C [LITHOCHOLIC ACID]
[1]
  Activity: inhibitor [(at a rough estimate) 5 % of control]

## C[C@H](CCC(=O)O)[C@H]1CC[C@H]2[C@@H]3CC[C@@H]4C[C@H](O)CC[C@]4(C)[C@H]3C[C@H](O)[C@]12C [DEOXYCHOLIC ACID]
[2]
  Activity: inhibitor [(at a rough estimate) 20 % of control]

## C[C@H](CCC(=O)O)[C@H]1CC[C@H]2[C@@H]3[C@H](O)C[C@@H]4C[C@H](O)CC[C@]4(C)[C@H]3CC[C@]12C [CHENODIOL]
[3]
  Activity: inhibitor [(at a rough estimate) 20 % of control]

## C[C@H](CCC(=O)NCC(=O)O)[C@H]1CC[C@H]2[C@@H]3[C@H](O)C[C@@H]4C[C@H](O)CC[C@]4(C)[C@H]3C[C@H](O)[C@]12C [GLYCOCHOLIC ACID]
[4]
  Activity: inhibitor [(at a rough estimate) 40 % of control]
